Results on ten compounds are retold here after patent US8518934B2, “Oxycarbamoyl compounds and the use thereof” (Shonogi & Co., Ltd., priority 2008, dated 2013).

By IC50 is commonly meant the concentration that inhibits the measured activity by half.

The target in this experiment is T1, N-type calcium channel (NTCC) (Homo sapiens, UniProt Q00975).
T1 construct: endogenous in cells; host or cells: differentiated IMR32 cells (ATCC)
T1 sequence (Q00975 whole entry): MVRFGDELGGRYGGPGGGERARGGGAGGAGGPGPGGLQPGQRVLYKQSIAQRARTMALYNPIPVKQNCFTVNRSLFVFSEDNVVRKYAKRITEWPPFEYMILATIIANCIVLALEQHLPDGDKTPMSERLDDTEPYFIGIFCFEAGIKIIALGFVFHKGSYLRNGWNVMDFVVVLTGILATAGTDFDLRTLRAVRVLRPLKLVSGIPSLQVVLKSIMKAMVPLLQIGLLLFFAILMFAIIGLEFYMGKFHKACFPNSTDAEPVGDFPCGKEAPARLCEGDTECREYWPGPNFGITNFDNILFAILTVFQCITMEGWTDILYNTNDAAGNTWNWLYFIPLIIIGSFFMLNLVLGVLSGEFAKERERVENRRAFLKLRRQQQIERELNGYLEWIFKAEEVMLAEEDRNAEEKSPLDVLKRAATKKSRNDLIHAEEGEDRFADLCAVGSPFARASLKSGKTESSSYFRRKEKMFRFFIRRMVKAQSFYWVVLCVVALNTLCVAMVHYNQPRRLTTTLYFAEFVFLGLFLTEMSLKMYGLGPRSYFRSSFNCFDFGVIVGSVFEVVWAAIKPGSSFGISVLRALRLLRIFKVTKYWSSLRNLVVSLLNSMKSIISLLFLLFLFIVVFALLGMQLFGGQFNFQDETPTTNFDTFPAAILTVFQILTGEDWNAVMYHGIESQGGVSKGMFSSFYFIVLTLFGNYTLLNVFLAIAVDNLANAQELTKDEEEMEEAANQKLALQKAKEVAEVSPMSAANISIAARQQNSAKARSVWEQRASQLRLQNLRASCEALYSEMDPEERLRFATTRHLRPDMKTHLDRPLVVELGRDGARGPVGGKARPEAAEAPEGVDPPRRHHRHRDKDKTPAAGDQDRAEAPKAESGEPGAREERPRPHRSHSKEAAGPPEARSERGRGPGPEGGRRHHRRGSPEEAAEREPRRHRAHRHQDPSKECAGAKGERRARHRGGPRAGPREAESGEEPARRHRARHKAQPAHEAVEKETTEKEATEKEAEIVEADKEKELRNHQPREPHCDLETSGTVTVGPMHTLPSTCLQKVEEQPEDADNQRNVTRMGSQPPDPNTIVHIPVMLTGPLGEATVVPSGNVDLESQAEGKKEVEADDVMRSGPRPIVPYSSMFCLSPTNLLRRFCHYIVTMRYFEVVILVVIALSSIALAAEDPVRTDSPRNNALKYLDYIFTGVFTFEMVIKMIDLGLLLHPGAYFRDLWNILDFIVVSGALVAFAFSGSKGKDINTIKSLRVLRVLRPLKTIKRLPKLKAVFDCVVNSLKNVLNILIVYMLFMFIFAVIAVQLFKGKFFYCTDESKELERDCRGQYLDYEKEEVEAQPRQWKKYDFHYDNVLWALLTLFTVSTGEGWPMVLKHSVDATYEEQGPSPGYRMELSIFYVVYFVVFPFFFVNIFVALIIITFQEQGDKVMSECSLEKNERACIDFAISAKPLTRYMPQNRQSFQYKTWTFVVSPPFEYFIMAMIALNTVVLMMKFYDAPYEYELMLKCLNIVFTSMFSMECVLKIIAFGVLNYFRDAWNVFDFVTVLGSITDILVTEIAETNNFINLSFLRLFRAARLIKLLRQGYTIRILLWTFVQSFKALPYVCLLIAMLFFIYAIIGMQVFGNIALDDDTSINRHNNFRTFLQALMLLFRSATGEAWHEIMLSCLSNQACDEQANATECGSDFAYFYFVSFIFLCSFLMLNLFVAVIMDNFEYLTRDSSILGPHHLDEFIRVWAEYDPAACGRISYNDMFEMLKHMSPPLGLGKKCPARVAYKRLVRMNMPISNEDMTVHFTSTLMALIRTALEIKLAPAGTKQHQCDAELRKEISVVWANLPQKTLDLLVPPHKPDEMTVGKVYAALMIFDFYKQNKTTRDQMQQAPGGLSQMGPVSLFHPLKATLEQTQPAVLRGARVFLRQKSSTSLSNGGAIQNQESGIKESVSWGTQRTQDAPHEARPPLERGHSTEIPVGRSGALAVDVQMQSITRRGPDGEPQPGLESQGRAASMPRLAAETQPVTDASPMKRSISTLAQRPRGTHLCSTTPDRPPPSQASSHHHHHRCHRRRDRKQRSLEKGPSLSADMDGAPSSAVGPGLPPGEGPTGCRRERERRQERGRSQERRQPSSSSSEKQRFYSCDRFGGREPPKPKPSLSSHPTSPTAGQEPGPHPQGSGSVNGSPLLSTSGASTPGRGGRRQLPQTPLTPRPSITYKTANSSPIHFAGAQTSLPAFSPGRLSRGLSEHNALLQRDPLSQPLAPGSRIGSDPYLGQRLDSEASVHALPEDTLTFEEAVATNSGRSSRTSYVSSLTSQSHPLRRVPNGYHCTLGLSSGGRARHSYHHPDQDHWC
T1 sequence (P54289 25-956 partner limits assumed): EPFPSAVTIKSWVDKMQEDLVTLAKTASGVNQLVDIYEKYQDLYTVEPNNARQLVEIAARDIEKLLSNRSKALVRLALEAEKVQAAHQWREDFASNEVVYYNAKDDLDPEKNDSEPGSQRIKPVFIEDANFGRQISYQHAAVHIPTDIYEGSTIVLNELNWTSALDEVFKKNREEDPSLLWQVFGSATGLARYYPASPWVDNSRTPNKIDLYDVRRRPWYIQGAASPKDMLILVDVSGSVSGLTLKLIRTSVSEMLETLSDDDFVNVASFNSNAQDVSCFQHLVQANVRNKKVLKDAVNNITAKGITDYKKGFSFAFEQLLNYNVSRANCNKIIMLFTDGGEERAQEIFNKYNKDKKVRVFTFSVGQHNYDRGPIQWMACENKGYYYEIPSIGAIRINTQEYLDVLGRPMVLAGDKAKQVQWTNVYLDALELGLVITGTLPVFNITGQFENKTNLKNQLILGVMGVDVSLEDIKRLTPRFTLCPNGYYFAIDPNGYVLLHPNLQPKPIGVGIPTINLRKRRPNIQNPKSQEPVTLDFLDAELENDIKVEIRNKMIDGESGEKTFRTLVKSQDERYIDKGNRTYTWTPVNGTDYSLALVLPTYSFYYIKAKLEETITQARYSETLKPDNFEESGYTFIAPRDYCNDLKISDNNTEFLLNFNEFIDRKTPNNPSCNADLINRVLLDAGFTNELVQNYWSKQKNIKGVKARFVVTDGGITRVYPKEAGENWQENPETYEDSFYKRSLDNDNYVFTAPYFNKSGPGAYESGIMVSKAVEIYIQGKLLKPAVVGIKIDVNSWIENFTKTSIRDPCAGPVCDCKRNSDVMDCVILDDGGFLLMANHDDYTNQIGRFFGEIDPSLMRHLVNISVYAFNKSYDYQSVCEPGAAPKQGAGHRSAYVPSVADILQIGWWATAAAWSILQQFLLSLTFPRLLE
T1 sequence (P54289 957-1103 partner limits assumed): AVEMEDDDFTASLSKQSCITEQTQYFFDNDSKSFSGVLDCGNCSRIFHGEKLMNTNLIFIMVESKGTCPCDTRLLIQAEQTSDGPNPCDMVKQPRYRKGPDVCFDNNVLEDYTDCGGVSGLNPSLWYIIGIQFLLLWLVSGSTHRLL
T1 sequence (P54284 whole entry partner): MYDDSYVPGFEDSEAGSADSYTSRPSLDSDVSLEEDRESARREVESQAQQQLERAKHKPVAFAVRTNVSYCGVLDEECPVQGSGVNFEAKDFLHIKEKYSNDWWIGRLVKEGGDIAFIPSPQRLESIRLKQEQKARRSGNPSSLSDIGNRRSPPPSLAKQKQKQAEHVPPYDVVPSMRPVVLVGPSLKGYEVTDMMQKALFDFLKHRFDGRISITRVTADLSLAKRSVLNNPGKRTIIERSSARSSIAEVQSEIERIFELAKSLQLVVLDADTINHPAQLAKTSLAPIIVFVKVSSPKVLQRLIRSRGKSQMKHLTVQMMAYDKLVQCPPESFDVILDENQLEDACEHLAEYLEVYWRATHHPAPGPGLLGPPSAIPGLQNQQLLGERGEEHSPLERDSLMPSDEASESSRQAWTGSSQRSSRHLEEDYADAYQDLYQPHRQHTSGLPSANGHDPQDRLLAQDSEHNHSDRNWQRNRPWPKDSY
Put plainly: FLIPR calcium mobilization assay for N-type calcium channel. Format: cell-based. To be noted: calcium mobilization in vitro assay; differentiated IMR32 cells, 90 mM KCl, 5 μM nitrendipine, Fluo-4. The procedure: Cell maintenance and differentiation. Unless noted otherwise, cell culture reagents were purchased from Mediatech of Herndon, Md. IMR32 cells (American Type Culture Collection, ATCC, Manassas, Va.) were routinely cultured in growth medium consisting of minimum essential medium containing 10% fetal bovine serum (FBS, Hyclone, Logan, Utah), 100 U/mL penicillin, 100 μg/mL streptomycin, 2 mM L-glutamine, 1 mM sodium pyruvate, and 1×MEM non-essential amino acids. 80-90% confluent flasks of cells were differentiated using the following differentiation medium: Growth medium plus 1 mM dibutyryl cyclic AMP (Sigma, St. Louis, Mo.), and 2.5 μM bromodeoxyuridine (Sigma). Cells were differentiated for 8 days by replacing differentiation medium every 2-3 days. A7r5 (ATCC) cells were maintained and routinely cultured in A7r5 growth medium consisting of Dulbecco's Modified Eagles Medium containing 10% FBS, 100 U/mL penicillin, 100 μg/mL streptomycin, 4 mM L-glutamine, and 0.15% sodium bicarbonate. 80-90% confluent flasks of cells were differentiated using the following differentiation medium: A7r5 Growth Medium plus 1 mM dibutyryl cyclic AMP (Sigma). Cells were differentiated for 8 days by replacing differentiation medium every 2-3 days.
Recombinant human embryonal kidney cells (HEK293, ATCC) stably transfected with either N-type calcium channel (NTCC) subunits (α1b, α2δ, and β3) or L-type calcium channel (LTCC) subunits (α1c, α2δ, and β1) were routinely cultured in growth medium consisting of Dulbecco's Modified Eagles Medium containing 10% FBS, 100 U/mL penicillin, 100 μg/mL streptomycin, 4 mM L-glutamine, 500 μg/mL geneticin (G418), 20 μg/mL Blasticidin S (InVivogen, San Diego, Calif.) and 500 μg/mL zeocin (InVivogen). FLIPR Calcium Mobilization Assay for N-type Calcium Channel. One day prior to performing this assay, differentiated IMR32 cells were treated with lx CellStripper, and seeded on poly-D-lysine-coated 96-well clear-bottom black plates (Becton Dickinson, Franklin Lakes, N.J.) at 200,000 cells/well. On the day of the assay, the cell plates were washed with IMR32 buffer (127 mM NaCl, 1 mM KCl, 2 mM MgCl2, 700 μM NaH2PO4, 5 mM CaCl2, 5 mM NaHCO3, 8 mM HEPES, 10 mM glucose, pH 7.4), then pre-stimulated with KCl and loaded as follows: 0.05 mL of IMR32 buffer, 0.05 mL of each compound tested diluted in IMR32 buffer containing 20 μM nitrendipine (Sigma), and 0.1 mL KCl dissolved in IMR32 buffer, plus Fluo-4 were added (3 μM final concentration, Molecular Probes, Eugene, Oreg.). Final test compound concentrations ranged from about 846 pM to about 17 μM, final nitrendipine concentration was 5 μM, and final KCl concentration was 90 mM. After 1 hour, the cells were washed twice with 0.05 mL of each compound tested in nitrendipine-containing IMR32 buffer (no KCl or Fluo-4), and then replaced with 0.1 mL of each compound tested in nitrendipine-containing IMR32 buffer. Plates were then transferred to a Fluorimetric Imaging Plate Reader (FLIPR^96, Molecular Devices, Inc., Sunnyvale, Calif.) for assay. The FLIPR measured basal Fluo-4 fluorescence for 315 seconds (i.e., 5 minutes and 15 seconds), then added 0.1 mL KCl agonist dissolved in IMR32 buffer and measured fluorescence for another 45 seconds. Final test compound concentrations on the cells after FLIPR read ranged from about 846 pM to about 17 μM, final nitrendipine concentration was 5 μM, and final KCl concentration was 90 mM. Data were collected over the entire time course and analyzed using Excel, Graph Pad Prism (version 3.02, Graph Pad, San Diego, Calif.), or an in-house non-linear regression analysis software.
A general note: Calcium assays in cells follow changes in intracellular calcium, usually with a dye or a luminescent sensor.
As for `O=C(CCc1ccc(F)cc1)NOC1CCN(S(=O)(=O)c2cccc(C(F)(F)F)c2)CC1` [Example 5, 3-(4-Fluorophenyl)-N-(1-(3-(trifluoromethyl)phenylsulfonyl)piperidin-4-yloxy)propanamide], the IC50 came out at 102 nM.
With `N#Cc1cccc(C(=O)NOC2CCN(S(=O)(=O)c3cccc(C(F)(F)F)c3)CC2)c1` [Example 7, 3-Cyano-N-(1-(3-(trifluoromethyl)phenylsulfonyl)piperidin-4-yloxy)benzamide], the IC50 worked out at 575 nM.
Regarding `O=C(NOC1CCN(S(=O)(=O)c2cccc(C(F)(F)F)c2)CC1)C(c1ccccc1)c1ccccc1` [Example 9, 2,2-Diphenyl-N-(1-(3-(trifluoromethyl)phenylsulfonyl)piperidin-4-yloxy)acetamide], the IC50 worked out at 218 nM.
Take `O=C(NO[C@H]1CCN(S(=O)(=O)c2cccc(C(F)(F)F)c2)C1)c1ccc(F)cc1` [Example 16, (S)-4-Fluoro-N-(1-(3-(trifluoromethyl)phenylsulfonyl)pyrrolidin-3-yloxy)benzamide]: the IC50 amounted to 1220 nM.
As to `O=C(NCCOc1ccc(F)cc1)NOC1CCN(S(=O)(=O)c2cccc(C(F)(F)F)c2)CC1` [Example 31, 1-(2-(4-Fluorophenoxy)ethyl)-3-(1-(3-(trifluoromethyl)phenylsulfonyl)piperidin-4-yloxy)urea], the IC50 turned out to be 154 nM.
Consider `CN(C(=O)NOC1CCN(S(=O)(=O)c2cccc(C(F)(F)F)c2)CC1)c1ccc(F)cc1` [Example 32, 1-(4-Fluorophenyl)-1-methyl-3-(1-(3-(trifluoromethyl)phenylsulfonyl)piperidin-4-yloxy)urea], for which the IC50 turned out to be 560 nM.
For the compound `O=C(NOC1CCN(S(=O)(=O)c2ccc(OC(F)(F)F)cc2)CC1)NC1CCC1` [Example 55, 1-Cyclobutyl-3-(1-(4-(trifluoromethoxy)phenylsulfonyl)piperidin-4-yloxy)urea], the IC50 stood at 290 nM.
In the case of `O=C(NCCC(F)(F)F)NOC1CCN(S(=O)(=O)c2ccc(OC(F)(F)F)cc2)CC1` [Example 67, 1-(1-(4-(Trifluoromethoxy)phenylsulfonyl)piperidin-4-yloxy)-3-(3,3,3-trifluoropropyl)urea], the IC50 was determined as 1490 nM.
As to `O=C(NO[C@H]1CCN(S(=O)(=O)c2cccc(C(F)(F)F)c2)C1)Nc1cc(C(F)(F)F)cc(C(F)(F)F)c1` [Example 86, (S)-1-(3,5-Bis(trifluoromethyl)phenyl)-3-(1-(3-(trifluoromethyl)phenylsulfonyl)pyrrolidin-3-yloxy)urea], the IC50 came to 705 nM.
In the case of `O=C(NOC1CCN(C(c2ccc(F)cc2)c2ccc(F)cc2)CC1)Nc1ccc(F)cc1` [Example 106, 1-(1-(Bis(4-fluorophenyl)methyl)piperidin-4-yloxy)-3-(4-fluorophenyl)urea], the IC50 was 2580 nM.
